Biological target: T1, leucine aminopeptidase (Sus scrofa, UniProt P15145)
T1 construct: purchased Sigma L0632
Test: Enzyme cleavage of 4′ blocking group by leucine aminopeptidase
Assay type: biochemical
Conditions: 0.25 units leucine aminopeptidase, 37° C., 47 mM sodium phosphate pH 7.2, 3.3% methanol
Description: 1 mg of 4′-C-(N-Leucylaminomethyl)thymidine (21) is incubated at 37° C. in 47 mM sodium phosphate pH 7.2 with 3.3% methanol and 0.25 units leucine aminopeptidase (Sigma L0632), to a final volume of 200 ul.
The products resulting from a), b) or c) above are analysed by thin layer chromatography using reverse phase plates with 10% acetonitrile in water or by electrospray mass spectrometry. Successful cleavage reactions yield nucleosides running concurrently with 4′-aminomethylthymidine which is used as a standard.

T1 sequence (P15145 whole entry): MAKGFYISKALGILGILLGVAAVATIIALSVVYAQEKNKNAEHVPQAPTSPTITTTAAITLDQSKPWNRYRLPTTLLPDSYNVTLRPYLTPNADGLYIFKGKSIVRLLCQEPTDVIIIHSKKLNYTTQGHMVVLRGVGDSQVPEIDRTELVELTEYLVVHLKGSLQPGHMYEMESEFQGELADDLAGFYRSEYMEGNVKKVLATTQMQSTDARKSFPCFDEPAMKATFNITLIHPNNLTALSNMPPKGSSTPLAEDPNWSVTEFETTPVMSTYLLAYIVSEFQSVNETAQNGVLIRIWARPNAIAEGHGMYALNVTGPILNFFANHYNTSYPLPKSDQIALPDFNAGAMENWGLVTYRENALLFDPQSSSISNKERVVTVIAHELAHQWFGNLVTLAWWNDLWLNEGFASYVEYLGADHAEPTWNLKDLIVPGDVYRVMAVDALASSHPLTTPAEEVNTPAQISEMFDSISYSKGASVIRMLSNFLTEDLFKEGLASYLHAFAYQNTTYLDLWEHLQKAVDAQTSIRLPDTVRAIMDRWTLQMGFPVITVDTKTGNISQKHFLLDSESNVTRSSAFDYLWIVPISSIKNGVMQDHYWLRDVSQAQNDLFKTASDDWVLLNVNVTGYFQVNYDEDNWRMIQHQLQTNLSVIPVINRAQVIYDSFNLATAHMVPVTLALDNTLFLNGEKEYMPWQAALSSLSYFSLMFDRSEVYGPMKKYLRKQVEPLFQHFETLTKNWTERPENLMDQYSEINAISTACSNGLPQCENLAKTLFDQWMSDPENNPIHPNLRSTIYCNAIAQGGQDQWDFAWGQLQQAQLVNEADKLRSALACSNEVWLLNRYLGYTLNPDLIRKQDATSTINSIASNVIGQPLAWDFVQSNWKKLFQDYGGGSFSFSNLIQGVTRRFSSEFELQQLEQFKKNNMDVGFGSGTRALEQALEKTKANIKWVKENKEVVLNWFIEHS

Cc1cn([C@H]2C[C@H](O)[C@](CO)(CNC(=O)[C@@H](N)CC(C)C)O2)c(=O)[nH]c1=O [compound (21), 4′-C-(N-Leucylaminomethyl)thymidine]
cleavage of 4′ blocking group (mass spectrometric detection of daughter ion mass 242): enzyme induced cleavage of the amino acid
